From patent US20260216294A1, “BETA 2-ADRENERGIC RECEPTOR AGONISTS FOR TREATMENT OR PREVENTION OF MUSCLE WASTING” (ATROGI AB, priority 2023, published 2026)

Experiments:
L6-myotubes [1] = assay: Measurement of intracellular cAMP levels in differentiated L6-myotubes (Biological Example 3); assay type: cell-based; details: for Emax at 10 µM: 0.25 h
Procedure, shortened: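 Intracellular cAMP quantified by AlphaScreen after ethanol extraction and lysis of L6 myotubes. Cells were serum-starved overnight, then exposed for 15 min to compound (final 1×10^−5 M) or isoprenaline in IBMX-containing (1 mM) HBSS buffer, pH 7.4.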

L6-myotubes [2] = assay: Glucose uptake in differentiated L6-myotubes (Biological Example 2); assay type: cell-based; details: for Emax at 10 µM: read-out: Biological example 2 (GU)
Procedure, shortened: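 Uptake was quantified as radioactivity in 0.2 M NaOH lysates after a 10 min pulse of 50 nM ^3H-2-deoxyglucose. The pulse followed two agonist exposures at 1×10^−5 M final (isoprenaline or test compound): 1 h 40 min, then 20 min in glucose-free medium after washing. L6 myotubes had been starved overnight in medium with 0.5% fatty-acid-free BSA.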

[3] = intracellular cAMP in differentiated L6-myotubes, compound at 10 μM, activity relative to isoproterenol at 10 μM
[4] = glucose uptake in differentiated L6-myotubes, compound at 10 μM, activity relative to isoproterenol at 10 μM
[5] = intracellular cAMP, compound at 10 μM relative to isoproterenol at 10 μM
[6] = glucose uptake, compound at 10 μM relative to isoproterenol at 10 μM

SMILES | Emax at 10 µM (L6-myotubes [1]; [3]) [%] | Emax at 10 µM (L6-myotubes [2]; [4]) [%] | Emax at 10 µM (L6-myotubes [1]; [5]) [%] | Emax at 10 µM (L6-myotubes [2]; [6]) [%] | also measured
CO[C@H]1CC[C@H](C[C@H]2CC[C@H]([C@H](O)c3cccc(F)c3)N2)CC1 [Compound 335] | < 25 | > 75 |  |  | 
CC1(C)CC[C@H]([C@H](O)c2cncc(F)c2)N1 [Compound 157, (R)-[(R)-5,5-dimethyl-2-pyrrolidinyl](5-fluoro-3-pyridyl)methanol] |  |  | < 25 | > 75 | 
CC12CC(C1)[C@H]([C@@H](O)c1ccccc1F)N2 [Compound 212] | < 25 | > 75 |  |  | 
COc1ccc(C[C@H]2CC[C@H]([C@H](O)c3cccc(F)c3)N2)cc1 [Compound 374, (R)-{(2R,5R)-5-[(p-methoxyphenyl)methyl]-2-pyrrolidinyl}(m-fluorophenyl)methanol] | < 25 | > 75 |  |  | 
CC(C)(NC[C@H](O)c1cccc(F)c1)[C@H]1CC[C@@H](C(=O)O)CC1 [Compound 369] | < 25 | 50 to 75 |  |  | 
CCCCNCC(O)c1cccnc1 (stereo not drawn) [Compound 49, 2-(butylamino)-1-(3-pyridyl)-1-ethanol] |  |  | < 25 | 50 to 75 | 
CO[C@H]1CC[C@H](CCC(C)(C)NC[C@H](O)c2cncc(F)c2)CC1 [Compound 267, (R)-2-{1,1-dimethyl-3-[(1r,4S)-4-methoxycyclohexyl]propylamino}-1-(5-fluoro-3-pyridyl)-1-ethanol] | < 25 | 25 to 50 |  |  | 
CC(C)(C[C@H]1CC[C@@H](C#N)CC1)NC[C@H](O)c1cccc(F)c1 [Compound 399, (1S,4s)-4-{2-[(R)-2-(m-fluorophenyl)-2-hydroxyethylamino]-2-methylpropyl} cyclohexanecarbonitrile] | 25 to 50 | > 75 |  |  | 
CC(=O)N[C@H]1CC[C@@H](CC(C)(C)NC[C@H](O)c2cccc(F)c2)CC1 [Compound 452] | < 25 | > 75 |  |  | 
CC1(C)CCC[C@H]([C@@H](O)c2cccc(F)c2)N1 [Compound 101] |  |  | < 25 | 25 to 50 | 
O[C@@H](c1cccc(F)c1)C12CCC(CCc3cccnc3)(CC1)N2 [Compound 445, (S)-(m-fluorophenyl){4-[2-(3-pyridyl)ethyl]-7-azabicyclo[[2.2.1]]hept-1-yl}methanol] |  | > 75 |  |  | Biological example 3 (CAMP) (L6-myotubes [1]; [3]): − (if it less than 25% it is denoted with −)
CN(C)S(=O)(=O)[C@H]1CC[C@@H](CC(C)(C)NC[C@H](O)c2cccc(F)c2)CC1 [Compound 470] | 25 to 50 | > 75 |  |  | 
O[C@H](c1cncc(F)c1)[C@H]1CC[C@@H](Cc2ccc(Cl)cc2)N1 [Compound 404, (R)-{(2R,5S)-5-[(p-chlorophenyl)methyl]-2-pyrrolidinyl}(5-fluoro-3-pyridyl)methanol] | < 25 | > 75 |  |  | 
CC12CC(C1)[C@@H]([C@@H](O)c1cncc(F)c1)N2 [Compound 221, (S)-{(S)-1-methyl-2-azabicyclo[[2.1.1]]hex-3-yl}(5-fluoro-3-pyridyl)methanol] | < 25 | 50 to 75 |  |  | 
COC(=O)[C@H]1CC[C@@H](CCC(C)(C)NC[C@H](O)c2cncc(F)c2)CC1 [Compound 349, methyl (1S,4s)-4-{3-[(R)-2-(5-fluoro-3-pyridyl)-2-hydroxyethylamino]-3-methylbutyl} cyclohexanecarboxylate] | 25 to 50 | > 75 |  |  | 
CCC[C@@H]1CCC[C@H]([C@H](O)c2ccccc2F)N1 [Compound 97, (R)-[(2R,6R)-6-propyl-2-piperidyl](o-fluorophenyl)methanol] |  |  | < 25 | 50 to 75 | 
C[C@H]1CC[C@@H]([C@@H](O)c2ccccc2)N1 (racemic) [Compound 39, Racemic mixture of (R)-[(2R,5R)-5-methyl-2-pyrrolidinyl] phenylmethanol and (S)-[(2S,5S)-5-methyl-2-pyrrolidinyl] phenylmethanol] |  |  | < 25 | 50 to 75 | 
CCOC(=O)CO[C@H]1CC[C@@H](C(C)(C)NC[C@H](O)c2cccc(F)c2)CC1 [Compound 407, ethyl[[(1S,4s)-4-{1-[(R)-2-(m-fluorophenyl)-2-hydroxyethylamino]-1-methylethyl}cyclohexyloxy]]acetate] | < 25 | 50 to 75 |  |  | 
CC(C)(NC[C@H](O)c1cncc(F)c1)[C@H]1CC[C@@H](OCc2ccccc2)CC1 [Compound 282, (R)-1-(5-fluoro-3-pyridyl)-2-{1-methyl-1-[(1s,4S)-4-(benzyloxy)cyclohexyl]ethylamino}-1-ethanol] | < 25 | 50 to 75 |  |  | 
CC(C)(C[C@H]1CC[C@H](NS(=O)(=O)C(F)(F)F)CC1)NC[C@H](O)c1cccc(F)c1 [Compound 458] | < 25 | > 75 |  |  | 

SMILES | Emax at 10 µM (L6-myotubes [1]; [3]) [%] | Emax at 10 µM (L6-myotubes [2]; [4]) [%] | Emax at 10 µM (L6-myotubes [1]; [5]) [%] | Emax at 10 µM (L6-myotubes [2]; [6]) [%] | also measured
CC(C)(C)NC[C@H](O)c1ccc(F)c(O)c1 [Compound 84, (R)-2-(tert-butylamino)-1-(4-fluoro-3-hydroxyphenyl)-1-ethanol] |  |  | 50 to 75 | > 75 | 
CC1(C)CCC[C@H]([C@H](O)c2cccc(Cl)c2)N1 [Compound 165] |  |  | < 25 | 25 to 50 | 
CC(C)(C)NCC(O)c1ccc(O)cc1 (stereo not drawn) [Compound 4, 2-(tert-butylamino)-1-(p-hydroxyphenyl)-1-ethanol] |  |  | 25 to 50 | > 75 | 
CCC[C@H]1CCC[C@H]([C@@H](O)c2ccc(F)cc2)N1 [Compound 105] |  |  | < 25 | 25 to 50 | 
CO[C@H]1CC[C@H](CCNC[C@H](O)c2cccc(F)c2)CC1 [Compound 224, (R)-1-(m-fluorophenyl)-2-{2-[(1r,4R)-4-methoxycyclohexyl]ethylamino}-1-ethanol] | < 25 | 25 to 50 |  |  | 
CC1(C)CC[C@@H]([C@@H](O)c2cccc(O)c2)N1 [Compound 143] |  |  | < 25 | < 25 | 
O[C@@H](c1cccc(F)c1)[C@H]1CCC2(CC2)N1 [Compound 171] |  |  | < 25 | 25 to 50 | 
CC(=O)N(C)[C@H]1CC[C@@H](CC(C)(C)NC[C@H](O)c2cncc(F)c2)CC1 [Compound 507] | < 25 |  |  |  | Biological example 2 (GU) (L6-myotubes [2]; [4]): ++ (if it is between 75 and 50% it is denoted with ++)
O[C@@H](c1cncc(F)c1)[C@H]1CC[C@@H](Cc2ccc(Cl)cc2)N1 [Compound 403, (S)-{(2R,5S)-5-[(p-chlorophenyl)methyl]-2-pyrrolidinyl}(5-fluoro-3-pyridyl)methanol] | < 25 | 50 to 75 |  |  | 
CCC[C@@H]1CC[C@H]([C@H](O)c2cccc(F)c2)N1 [Compound 58] |  |  | 25 to 50 | > 75 | 
CC(C)(C[C@H]1CC[C@@H](O)CC1)NC[C@H](O)c1cccc(F)c1 [Compound 302, (R)-2-{1,1-dimethyl-2-[(1s,4S)-4-hydroxycyclohexyl]ethylamino}-1-(m-fluorophenyl)-1-ethanol] | < 25 | 50 to 75 |  |  | 
CCC[C@@H]1CC[C@@H]([C@H](O)c2cccc(F)c2)N1 [Compound 132, (R)-[(2S,5R)-5-propyl-2-pyrrolidinyl](m-fluorophenyl)methanol] |  |  | < 25 | 25 to 50 | 
CCCCNC[C@H](O)c1csc(C(F)(F)F)n1 [Compound 72, (S)-2-(butylamino)-1-[2-(trifluoromethyl)-1,3-thiazol-4-yl]-1-ethanol] |  |  | < 25 | 25 to 50 | 
CC12CC(C1)[C@H]([C@@H](O)c1cncc(F)c1)N2 [Compound 222, (S)-{(R)-1-methyl-2-azabicyclo[[2.1.1]]hex-3-yl}(5-fluoro-3-pyridyl)methanol] | < 25 | < 25 |  |  | 
O[C@H](c1cccc(F)c1)C12CCC(CCc3ccc(OC(F)(F)F)cc3)(CC1)N2 [Compound 546, (R)-(m-fluorophenyl){4-[2-(p-trifluoromethoxyphenyl)ethyl]-7-azabicyclo[[2.2.1]]hept-1-yl}methanol] | < 25 | < 25 |  |  | 
CCC[C@H]1CC[C@H]([C@H](O)c2cccc(O)c2)N1 [Compound 125, m-{(R)-[(2R,5S)-5-propyl-2-pyrrolidinyl] hydroxymethyl}phenol] |  |  | < 25 | 50 to 75 | 
CO[C@H]1CC[C@@H](CCCNC[C@H](O)c2cccc(F)c2)CC1 [Compound 258, (R)-1-(m-fluorophenyl)-2-{3-[(1s,4R)-4-methoxycyclohexyl]propylamino}-1-ethanol] | 50 to 75 | > 75 |  |  | 
CC(C)(NC[C@H](O)c1cncc(F)c1)[C@H]1CC[C@@H](O)CC1 [Compound 286, (R)-1-(5-fluoro-3-pyridyl)-2-{1-methyl-1-[(1s,4S)-4-hydroxycyclohexyl]ethylamino}-1-ethanol] | < 25 | 25 to 50 |  |  | 
Cc1ncccc1[C@@H](O)CNC(C)(C)C [Compound 376, (R)-2-(tert-butylamino)-1-(2-methyl-3-pyridyl)-1-ethanol] | 25 to 50 | > 75 |  |  | 
